Measurements taken from publication PMC5407577, “Functional and genetic evidence that nucleoside transport is highly conserved in Leishmania species: Implications for pyrimidine-based chemotherapy” (International Journal for Parasitology: Drugs and Drug …, 2017).
Like-named read-outs stand apart in the source and are kept apart here.

Columns and labels:
[1] = system: Lmaj5F2′dURes; experiment: microbe, parasite or virus in culture; format: cell-based, Leishmania major
Experimental: (§1) Sensitivity assays of Leishmania strains to various drugs using the viability dye resazurin (Alamar Blue) (Sigma-Aldrich) were performed using a protocol adapted from [Räz et al. (1997)], as described ([Al-Salabi et al., 2003], [Gould et al., 2008]). Pentamidine and diminazene were used as non-nucleoside controls and were obtained from Sigma-Aldrich, as were many purines, pyrimidines, and analogs, with the exceptions of 2-thiouridine and 4-thiouridine (TriLink BioTechnologies, San Diego, CA); 5′-deoxyuridine, and 2′-3′-dideoxyuridine (Carbosynth, Compton, UK); 5-fluoro-2′-deoxyuridine (Fluka); and 2-thiouracil (ICN Biomedicals, Cambridge, UK). A preliminary promastigote culture was diluted to a density of 2 × 10^6 cells/ml, of which 100 μl was added to wells of 96-well plates pre-loaded with 100 μl of doubling dilutions of test compounds, resulting in a final density of 1 × 10^6 cells/ml; the dilutions were over 2 rows of the plate (23 concentrations), with the last well containing only medium and serving as the no-drug control. The plates were incubated at 25 °C for 72 h before adding the Alamar Blue dye (20 μl of 12.5 mg resazurin sodium salt (Sigma) in 100 ml phosphate buffered saline (PBS; pH 7.4)). Since Leishmania parasites metabolize the Alamar Blue dye slower than trypanosomes ([Gould et al., 2008]), the cells were incubated with the dye for a further period of 48 h before measuring the fluorescence, using a FLUOstar Optima fluorimeter (BMG Labtech) at wavelengths of 544 nm for excitation and 620 nm for emission. […] Each experiment was performed independently at least 4 times; statistical significance was determined using Student's unpaired t-test.

[2] = system: Lmaj5FURes; experiment: microbe, parasite or virus in culture; format: cell-based, Leishmania major
Experimental: as §1

[3] = system: L. mexicana promastigotes WT; experiment: Alamar blue drug sensitivity assay, L. mexicana WT; format: cell-based, Leishmania mexicana; conditions: for activity against L. mexicana promastigotes: at concentrations up to 5 mM
Experimental: as §1

[4] = system: Lmex5F2′dURes; experiment: microbe, parasite or virus in culture; format: cell-based, Leishmania mexicana
Experimental: as §1

[5] = system: Lmex5FURes; experiment: microbe, parasite or virus in culture; format: cell-based, Leishmania mexicana
Experimental: as §1

[6] = system: L. major promastigotes WT; experiment: Alamar blue drug sensitivity assay, L. major WT; format: cell-based, Leishmania major
Experimental: as §1

[7] = system: L. major promastigotes; experiment: metabolomic analysis of treated L. major promastigotes; format: cell-based, Leishmania major; conditions: 100 μM, 8 h
Experimental: (§2) Metabolomics analysis of the Leishmania promastigotes was undertaken in triplicate, exactly as described ([Ali et al., 2013a]). Briefly, cells were grown to log phase stage, resuspended at 2 × 10^6 cells/ml in 50 ml HOMEM/FBS and incubated 8 h with 100 μM of test compound (standard conditions) before transfer to a 50-ml centrifuge tube for instantaneous cooling (dry ice/ethanol bath, 4 °C) and centrifugation (2500 rpm, 10 min, 4 °C). The pellet was lysed with 200 μl of chloroform/methanol/water (1:3:1 v/v/v) containing mass spectrometry standards, and vigorous mixing (1 h, 4 °C); cell debris was removed by centrifugation and the metabolite extracts were stored in HPLC vials at −80 °C. Control samples were prepared in parallel and included untreated cells, unused growth medium, test compound solution and extraction solvent blanks. The analysis used a hydrophilic interaction liquid chromatography (HILIC-LC) fitted with a zwitterionic ZIC-pHILIC column (Merck Sequant), coupled to high resolution mass spectrometry (MS) using a Thermo Q-Exactive, and metabolomic data outputs were analyzed using the IDEOM application (http://mzmatch.sourceforge.net/ideom.php) with default parameters ([Creek et al., 2012]) exactly as described ([Ali et al., 2013a]). The lower limit of detection was set to 500 intensity units for all reported metabolites, in order to prevent spurious identification of low level signals.
(§3) The mechanism of action of the fluorinated pyrimidines was investigated using a metabolomics approach, where promastigotes of L. mexicana and L. major were incubated for 8 h with 100 μM of either 5-FU, 5F-2′dUrd or 5F-Urd prior to metabolite extraction and mass spectrometric analysis as described ([Ali et al., 2013a], [Alkhaldi et al., 2015]). These conditions were chosen to allow for significant metabolite accumulation while not affecting cell viability or growth rate, which could broadly affect metabolite levels.

[8] = biological target: LmajNT1; experiment: [3H]-thymidine uptake by L. major promastigotes; format: cell-based, Leishmania major
Experimental: (§4) Using the standard uptake technique as described for T. brucei and Leishmania species ([Wallace et al., 2002], [Al-Salabi and De Koning, 2005], [Gudin et al., 2006]), the dose- or time-dependent uptake of radiolabeled permeants was investigated.
(§5) Briefly, cells in the mid-to-late logarithmic stage of growth were harvested by centrifugation for 10 min at 1500×g. The cells were washed twice with transport assay buffer (AB: 33 mM HEPES, 98 mM NaCl, 4.6 mM KCl, 0.55 mM CaCl2, 0.07 mM MgSO4, 5.8 mM NaH2PO4, 0.3 mM MgCl2, 23 mM NaHCO3, 14 mM glucose, pH 7.3), resuspended at a density of 10^8 cells ml^−1 in AB, and left for 20–30 min at room temperature to recover from centrifugation stress. One hundred microliters of cell suspension was incubated at ambient temperature for a predetermined time with 100 μl radiolabeled test compound, in the presence or absence of unlabeled substrate or other competitive inhibitors. The incubation was terminated by the addition of ice-cold stop solution (AB containing saturating levels, usually 10 mM, of unlabeled permeant) and centrifugation through oil for 1 min at 13,000 × g. […] Radioactivity was determined by liquid scintillation counting in a Beckman LS6000 TA scintillation counter. Saturation data, inhibition data, and time courses were plotted to equations for linear or non-linear regression (hyperbolic or sigmoid curves), as appropriate. All experiments were performed in triplicate and on at least three independent occasions.
Subsequent experiments were performed with a 5 min incubation time.

[9] = system: L. mexicana promastigotes; experiment: metabolomic analysis of treated L. mexicana promastigotes; format: cell-based, Leishmania mexicana; conditions: 100 μM, 8 h
Experimental: as §2, §3

[10] = system: LmexNT1; format: cell-based, Leishmania mexicana; conditions: for rate of uptake: 1 μM [3H]-thymidine
Experimental: as §4, §5
L. donovani is known to express one pyrimidine nucleoside transporter, LdNT1, which also transports adenosine ([Vasudevan et al., 1998], [De Koning et al., 2005]). In order to investigate whether this model held true for L. mexicana, the uptake of [^3H]-thymidine was studied. […] Care was taken throughout this study that whenever inhibition constants (Ki) or Michaelis-Menten constants (Km) were determined the conditions used had been verified to be well within the linear range of uptake.

[11] = biological target: LmajUUT1; experiment: [3H]-uridine uptake by L. major promastigotes, high-affinity uracil-sensitive component; format: cell-based, Leishmania major; conditions: inhibition of 0.25 μM [3H]-uridine uptake
Experimental: as §4, §5

[12] = biological target: LmajNT1; experiment: [3H]-uridine uptake by L. major promastigotes, low-affinity component; format: cell-based, Leishmania major; conditions: inhibition of 0.25 μM [3H]-uridine uptake
Experimental: as §4, §5

[13] = biological target: LmexNT1; format: cell-based, Leishmania mexicana; conditions: inhibition of 0.25 μM [3H]-uridine uptake in the presence of 1 mM uracil
Experimental: as §4, §5

[14] = biological target: LmexNT1; experiment: [3H]-adenosine uptake by L. mexicana promastigotes; format: cell-based, Leishmania mexicana; conditions: inhibition of 0.05 μM [3H]-adenosine uptake; read-out: Ki
Text: Using the standard uptake technique as described for T. brucei and Leishmania species ([Wallace et al., 2002], [Al-Salabi and De Koning, 2005], [Gudin et al., 2006]), the dose- or time-dependent uptake of radiolabeled permeants was investigated. The following radiolabels and specific activities were used: [^3H]-thymidine (Perkin Elmer; 56.6 Ci/mmol); [^3H]-adenosine (American Radiolabeled Chemicals UK; 40 Ci/mmol); [^3H]-uridine (American Radiolabeled Chemicals UK; 30 Ci/mmol); [^3H]-uracil (Perkin Elmer; 24.8 Ci/mmol); [^3H]-inosine (American Radiolabeled Chemicals UK; 20 Ci/mmol); [^3H]-5-fluorouracil (Moravek; 20 Ci/mmol).
as §5
We next investigated the transport of [^3H]-adenosine in L. mexicana promastigotes, which according to the efficient inhibition of [^3H]-thymidine by adenosine, should be taken up with high affinity.

[15] = n = 3, SEM, untreated: not detected (<500)

Question: Which EC50 ([1]; Leishmania major) does the source give for `O=c1[nH]c(=O)n([C@@H]2O[C@H](CO)[C@@H](O)[C@H]2O)cc1F` [5F-Urd, 5-Fluorouridine] here?
Answer: 1230 ± 340 µM

Question: What about the “RF (Resistance Factor = IC50 (resistant clone)/IC50 (WT))” value (“RF” below) ([1]; Lmaj5F2′dURes vs L. major WT) of the same molecule?
Answer: 68

Question: And the EC50 ([2]; Leishmania major)?
Answer: 110 ± 17 µM

Question: What about the “RF” value ([2]; Lmaj5FURes vs L. major WT) of the same molecule?
Answer: 6.1

Question: And the EC50 ([3]; Leishmania mexicana, 72 h, WT promastigotes, 72 h + 48 h with dye, n ≥ 4, read-out: EC50)?
Answer: > 5000 µM

Question: What about the “activity against L. mexicana promastigotes” value [3] of the same molecule?
Answer: insensitive

Question: And the “activity against L. mexicana promastigotes” value ([3]; listed as 5-fluorouridine)?
Answer: no activity

Question: And the EC50 ([4]; Leishmania mexicana)?
Answer: > 5000 µM

Question: And the “RF” value ([4]; Lmex5F2′dURes vs L. mexicana WT)?
Answer: 1

Question: What about the EC50 ([5]; Leishmania mexicana) of the same molecule?
Answer: > 5000 µM

Question: What about the “RF” value ([5]; Lmex5FURes vs L. mexicana WT) of the same molecule?
Answer: 1

Question: And the “concentrations that killed promastigotes” value [6]?
Answer: below 20 μM

Question: And the EC50 ([6]; Leishmania major, WT promastigotes, 72 h + 48 h with dye, n ≥ 4, read-out: EC50)?
Answer: 18 ± 1.6 µM

Question: What about the dCMP peak intensity [7, 15] of the same molecule?
Answer: 6744 ± 3500 arbitrary units

Question: And the dUrd peak intensity ([7]; untreated: 712 ± 105)?
Answer: 8145 ± 1684^∗ arbitrary units

Question: What about the dCTP peak intensity ([7]; untreated: 995 ± 109) of the same molecule?
Answer: 5477 ± 1350^∗ arbitrary units

Question: What about the dAdo peak intensity ([7]; untreated: 2992 ± 173) of the same molecule?
Answer: 11818 ± 839^∗∗ arbitrary units

Question: What about the dAMP peak intensity ([7]; untreated: 6192 ± 910) of the same molecule?
Answer: 18001 ± 2307^∗ arbitrary units

Question: What about the dADP peak intensity ([7]; untreated: not detected) of the same molecule?
Answer: 6482 ± 3260 arbitrary units

Question: And the dCDP peak intensity ([7]; untreated: not detected)?
Answer: 6904 ± 384^∗∗ arbitrary units

Question: What about the Ki ([8]; inhibition of 0.25 μM [3H]-thymidine uptake (total LmajNT1.1 + LmajNT1.2), 5 min) of the same molecule?
Answer: 23.4 ± 1.3 µM

Question: What about the dCMP peak intensity [9, 15] of the same molecule?
Answer: 12757 ± 1038^∗∗ arbitrary units

Question: And the dUrd peak intensity ([9]; untreated: 304 ± 155)?
Answer: 6439 ± 456^∗ arbitrary units

Question: And the dADP peak intensity ([9]; untreated: 1458)?
Answer: 9404 ± 1389^∗ arbitrary units

Question: And the dAdo peak intensity ([9]; untreated: 2585 ± 811)?
Answer: 8045 ± 4537 arbitrary units

Question: And the dAMP peak intensity ([9]; untreated: 10660 ± 2897)?
Answer: 21978 ± 1784^∗∗ arbitrary units

Question: And the dCDP peak intensity ([9]; untreated: not detected)?
Answer: 10404 ± 1470^∗ arbitrary units

Question: And the dCTP peak intensity ([9]; untreated: not detected)?
Answer: 2338 ± 428^∗ arbitrary units

Question: What does the source list for `Cc1cn([C@H]2C[C@H](O)[C@@H](CO)O2)c(=O)[nH]c1=O` [thymidine]?
Answer: rate of uptake ([10]; linear over 30 s (Fig. 1A)): 0.082 ± 0.005 pmol(10^7 cells)^−1s^−1; rate of uptake ([10]; over 2 min (Fig. 1B)): 0.051 ± 0.002 pmol(10^7 cells)^−1s^−1; Vmax ([10]; [3H]-thymidine): 1.53 ± 0.28 pmol(10^7 cells)^−1s^−1; Km ([10]; [3H]-thymidine, n = 3): 11.2 ± 2.4 µM; Ki [11]: 60.9 ± 8.4 µM; Ki [12]: 60.9 ± 8.4 µM; Ki [13]: 9.98 ± 2.67 µM; Ki [14]: 16.5 ± 0.4 µM; Vmax (1) ([8]; [3H]-thymidine, high affinity component): 0.023 ± 0.003 pmol(10^7 cells)^−1s^−1; Km ([8]; [3H]-thymidine, high affinity component, Lineweaver-Burke plot, n = 5, read-out: Km (1)): 4.2 ± 1.09 µM; Vmax (2) ([8]; [3H]-thymidine, lower affinity component): 0.14 ± 0.03 pmol(10^7 cells)^−1s^−1; Km ([8]; n = 5, read-out: average Km from Michaelis-Menten saturation plots (single-component fit)): 30.7 ± 2.1 µM; Km ([8]; single experiment shown in Fig. 5C, read-out: apparent Km, higher affinity component): 1.26 µM; Km ([8]; single experiment shown in Fig. 5C, read-out: apparent Km, lower affinity component): 17.1 µM
